Calls of active or inactive are those of the source. No cut-off for these calls is given here.
What was measured:
[1] = molecular target: T1, Indoleamine 2,3-dioxygenase 1 (Homo sapiens, UniProt P14902); assay: Inhibition of IFNgamma-induced IDO1 in human HeLa cells using L-tryptophan as substrate after 24 hrs; format: cell-based
Target sequence in this assay (P14902 whole entry): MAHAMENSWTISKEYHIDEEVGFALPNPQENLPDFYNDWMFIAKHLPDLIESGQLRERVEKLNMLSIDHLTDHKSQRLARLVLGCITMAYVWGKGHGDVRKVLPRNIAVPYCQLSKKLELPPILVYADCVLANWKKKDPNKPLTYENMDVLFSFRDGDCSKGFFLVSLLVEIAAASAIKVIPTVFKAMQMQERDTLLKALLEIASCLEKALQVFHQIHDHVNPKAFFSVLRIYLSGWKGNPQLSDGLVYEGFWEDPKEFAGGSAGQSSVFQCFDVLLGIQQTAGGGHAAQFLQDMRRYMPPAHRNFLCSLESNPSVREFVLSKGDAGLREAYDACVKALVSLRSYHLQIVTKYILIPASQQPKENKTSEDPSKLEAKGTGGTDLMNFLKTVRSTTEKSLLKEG

[2] = tested on: HeLa; assay: Cytotoxicity against human HeLa cells assessed as reduction in cell viability at 10 to 30 uM after 24 hrs by MTT assay; format: cell-based
[3] = tested on: HeLa; assay: Inhibition of IFNgamma-induced IDO1 protein expression in human HeLa cells at IDO1 inhibitory IC50 after 24 hrs by Western blot method; format: functional, cell-based
[4] = molecular target: Indoleamine 2,3-dioxygenase 1 (Mus musculus) (UniProt P28776); assay: Inhibition of IDO1 in mouse B16F1 cells co-cultured with Balb/c mouse T-cells assessed as reversal of IDO1-mediated suppression of T-cell proliferation at 30 uM after 48 hrs by MTT assay; format: cell-based
Indoleamine 2,3-dioxygenase 1 (Mus musculus), sequence (P28776 whole entry, looked up): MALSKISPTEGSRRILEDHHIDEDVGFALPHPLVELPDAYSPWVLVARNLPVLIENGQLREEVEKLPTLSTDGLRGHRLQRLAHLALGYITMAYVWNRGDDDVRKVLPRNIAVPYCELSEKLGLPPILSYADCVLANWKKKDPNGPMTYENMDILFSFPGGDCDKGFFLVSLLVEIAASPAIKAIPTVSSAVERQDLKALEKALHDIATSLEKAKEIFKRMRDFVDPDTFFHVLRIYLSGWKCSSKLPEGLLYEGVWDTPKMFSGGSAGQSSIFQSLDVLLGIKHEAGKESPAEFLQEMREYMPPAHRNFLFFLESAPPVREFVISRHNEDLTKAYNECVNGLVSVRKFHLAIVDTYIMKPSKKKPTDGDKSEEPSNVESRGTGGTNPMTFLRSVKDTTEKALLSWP

[5] = molecular target: Indoleamine 2,3-dioxygenase 1 (Mus musculus) (UniProt P28776); assay: Inhibition of IDO1 in mouse B16F1 cells co-cultured with Balb/c mouse T-cells assessed as increase in IFN-gamma level at 30 uM after 48 hrs by ELISA; format: cell-based
[6] = molecular target: Indoleamine 2,3-dioxygenase 1 (Mus musculus) (UniProt P28776); assay: Inhibition of IDO1 in mouse B16F1 cells co-cultured with Balb/c mouse T-cells assessed as decrease in differentiation of Treg cells by measuring CD4+/CD25+/FOXP3 cells at 30 uM by FITC/APC/PE staining based flow cytometry (reference value: 11.7%); format: cell-based; parameters: scale not given: the % may be the effect or the level left
[7] = molecular target: T1, Indoleamine 2,3-dioxygenase 1; assay: Binding affinity to recombinant human IDO1 assessed as interaction with ferrous ion in enzyme active site by measuring absorbance maxima for ferrous heme at 2 mM by UV-Visible spectral analysis (reference value: 424 nanometer)
Target sequence in this assay (P14902 whole entry, looked up): as the sequence (P14902 whole entry) above

[8] = molecular target: Indoleamine 2,3-dioxygenase 1 (Mus musculus) (UniProt P28776); assay: Inhibition of IDO1 in mouse B16F1 cells co-cultured with Balb/c mouse T-cells assessed as reversal of IDO1-mediated suppression of T-cell proliferation at 1.5 uM after 48 hrs by MTT assay; format: cell-based
[9] = molecular target: Indoleamine 2,3-dioxygenase 1 (Mus musculus) (UniProt P28776); assay: Inhibition of IDO1 in mouse B16F1 cells co-cultured with Balb/c mouse T-cells assessed as increase in IFN-gamma level at 1.5 uM after 48 hrs by ELISA; format: cell-based
[10] = molecular target: Indoleamine 2,3-dioxygenase 1 (Mus musculus) (UniProt P28776); assay: Inhibition of IDO1 in mouse B16F1 cells co-cultured with Balb/c mouse T-cells assessed as reversal of IDO1-mediated suppression of T-cell proliferation at 18 uM after 48 hrs by MTT assay; format: cell-based
[11] = molecular target: Indoleamine 2,3-dioxygenase 1 (Mus musculus) (UniProt P28776); assay: Inhibition of IDO1 in mouse B16F1 cells co-cultured with Balb/c mouse T-cells assessed as increase in IFN-gamma level at 18 uM after 48 hrs by ELISA; format: cell-based
[12] = molecular target: Indoleamine 2,3-dioxygenase 1 (Mus musculus) (UniProt P28776); assay: Inhibition of IDO1 in mouse B16F1 cells co-cultured with Balb/c mouse T-cells assessed as decrease in differentiation of Treg cells by measuring CD4+/CD25+/FOXP3 cells at 18 uM by FITC/APC/PE staining based flow cytometry (reference value: 11.7%); format: cell-based; parameters: scale not given: the % may be the effect or the level left

Row | SMILES | IC50 [1] [µM] | Activity [2] | other results
1 | O=C(Cn1c(=O)oc2ccc(Cl)cc21)c1cccc(Cl)c1 | 76.6 | Non-Toxic | 
2 | O=c1oc2ccc([N+](=O)[O-])cc2n1Cc1ccc(Cl)cc1 | 99.3 | Non-Toxic | 
3 | COc1cccc(CNC(=O)n2c(=O)oc3ccc(Cl)cc32)c1 | 14.6 | Non-Toxic | 
4 | O=c1oc2ccc(Cl)cc2n1Cc1cccc(F)c1 | 9.75 | Non-Toxic | inhibition [3]: inactive; inhibition [4]: Active; inhibition [5]: Active; Activity [6]: 6%; Activity [7]: 418 nm
5 | O=C(c1ccccc1)n1c(=O)oc2ccccc21 | 90.5 | Non-Toxic | 
6 | O=c1oc2ccc(Cl)cc2n1CC(O)c1cccc(Cl)c1 (stereo not drawn) | 60.9 | Non-Toxic | 
7 | O=c1oc2ccccc2n1CC(O)c1ccc(F)cc1 (stereo not drawn) | 49.3 | Non-Toxic | 
8 | O=c1oc2ccc(Cl)cc2n1CC(O)c1ccc(F)cc1 (stereo not drawn) | 10.2 | Non-Toxic | 
9 | O=c1oc2ccc(F)cc2n1Cc1cccc(F)c1 | 28.5 | Non-Toxic | 
10 | O=c1oc2ccc([N+](=O)[O-])cc2n1Cc1cccc(F)c1 | 99.8 | Non-Toxic | 
11 | O=c1oc2ccccc2n1CC(O)c1cccc(Cl)c1 (stereo not drawn) | 80.6 | Non-Toxic | 
12 | O=c1oc2ccccc2n1Cc1cccc(F)c1 | 30.8 | Non-Toxic | 
13 | OC(CC1c2ccccc2-c2cncn21)C1CCCCC1 (racemic) |  |  | inhibition [8]: Active; inhibition [9]: Active
14 | O=c1oc2ccc(F)cc2n1Cc1ccc(Cl)cc1 | 80.8 | Non-Toxic | 
15 | O=c1oc2ccc(Cl)cc2n1CCc1ccccc1 | 17.9 | Non-Toxic | 
16 | O=C(Cn1c(=O)oc2ccc(Cl)cc21)c1ccc(F)cc1 | 20.7 | Non-Toxic | 

Row | SMILES | IC50 [1] [µM] | Activity [2] | other results
17 | O=C(Cn1c(=O)oc2ccc(Cl)cc21)c1ccc(Cl)cc1 | 24.9 | Non-Toxic | 
18 | O=C(Cn1c(=O)oc2ccccc21)c1ccc(Cl)cc1 | 38.6 | Non-Toxic | 
19 | O=C(Cc1ccc(F)cc1)n1c(=O)oc2ccc(Cl)cc21 | 6.4 | Non-Toxic | inhibition [3]: inactive; inhibition [10]: Active; inhibition [11]: Active; Activity [12]: 7.1%
20 | O=c1oc2ccc(Cl)cc2n1Cc1ccc(Cl)cc1 | 6.08 | Non-Toxic | inhibition [3]: inactive; inhibition [10]: 52%; inhibition [11]: Active; Activity [12]: 8.7%; Activity [7]: 418 nm
21 | O=c1[nH]c2ccccc2n1CC(O)c1ccc(F)cc1 (stereo not drawn) | 99.9 | Non-Toxic | 
22 | O=C(Cn1c(=O)oc2ccccc21)c1cccc(Cl)c1 | 49.3 | Non-Toxic | 
23 | O=C(Cn1c(=O)oc2ccccc21)c1ccc(F)cc1 | 53.1 | Non-Toxic | 
24 | COc1ccc(CNC(=O)n2c(=O)oc3ccccc32)cc1 | 31.8 | Non-Toxic | 
25 | O=C(Cc1ccc(F)cc1)n1c(=O)oc2ccccc21 | > 100 | Non-Toxic | 
26 | O=c1oc2ccccc2n1Cc1ccc(Cl)cc1 | 35 | Non-Toxic | 
27 | O=c1oc2ccccc2n1CC(O)c1ccc(Cl)cc1 (stereo not drawn) | 50.8 | Non-Toxic | 
28 | Nc1ccc2oc(=O)n(Cc3cccc(F)c3)c2c1 | > 100 | Non-Toxic | 
29 | COc1ccc(NC(=O)n2c(=O)oc3ccc(Cl)cc32)cc1 | > 100 | Non-Toxic | 
30 | O=c1oc2ccccc2n1CCc1ccccc1 | > 100 | Non-Toxic | 
31 | O=c1oc2ccc(Cl)cc2n1CC(O)c1ccc(Cl)cc1 (stereo not drawn) | 62.7 | Non-Toxic | 
32 | Nc1nc2ccccc2n1C(=O)Cc1ccc(F)cc1 | 22.7 | Non-Toxic | 
